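The compound was tested at five concentrations on cells cultured in 96-well plates, with a 48-hour exposure period. GI50: concentration for 50% inhibition of growth.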 Active and inactive are the calls of the source. Cut-off read from the data, not from the text of the source: active = GI50 up to about 1.1 µM and inactive = higher.
Experiments:
Experiment in all cases: NCI anticancer screen, dose series, 48 h
786-0 = system: 786-0
A498 = system: A498
HCT-15 = system: HCT-15
Hs-578T = system: Hs-578T
K562 = system: K562
MCF7 = system: MCF7
MDA-MB-231 = system: MDA-MB-231
MDA-MB-435 = system: MDA-MB-435
MDA-N = system: MDA-N
MOLT-4 = system: MOLT-4
NCI-H23 = system: NCI-H23
NCI-H460 = system: NCI-H460
NCI/ADR-RES = system: NCI/ADR-RES
OVCAR-5 = system: OVCAR-5
RPMI-8226 = system: RPMI-8226
SF-539 = system: SF-539
SK-MEL-2 = system: SK-MEL-2
SW-620 = system: SW-620
UACC-257 = system: UACC-257
OVCAR-4 = system: OVCAR-4

| SMILES | GI50 (786-0) | GI50 (A498) | GI50 (HCT-15) [µM] | GI50 (Hs-578T) | GI50 (K562) | GI50 (MCF7) | GI50 (MDA-MB-231) | GI50 (MDA-MB-435) | GI50 (MDA-N) | GI50 (MOLT-4) | GI50 (NCI-H23) | GI50 (NCI-H460) | GI50 (NCI/ADR-RES) | GI50 (OVCAR-5) | GI50 (RPMI-8226) | GI50 (SF-539) | GI50 (SK-MEL-2) | GI50 (SW-620) | GI50 (UACC-257) | GI50 (OVCAR-4) |
| --- | --- | --- | --- | --- | --- | --- | --- | --- | --- | --- | --- | --- | --- | --- | --- | --- | --- | --- | --- | --- |
| O=c1oc2cc(O)ccc2c(O)c1C(c1ccccc1F)c1c(O)c2ccc(O)cc2oc1=O | > 100 µM (inactive) | > 100 µM (inactive) | 31 | 68.9 µM (inactive) | 25.4 µM (inactive) | 45.2 µM (inactive) | 95.7 µM (inactive) | 43.8 µM (inactive) | 61.2 µM (inactive) | 45.8 µM (inactive) | > 100 µM (inactive) | > 100 µM (inactive) | > 100 µM (inactive) | > 100 µM (inactive) | 29.6 µM (inactive) | 31.7 µM (inactive) | 45 µM (inactive) | 38.4 µM (inactive) | > 100 µM (inactive) |  |
| C(=N\OCCc1ccccc1)/c1cccnc1 | > 100 µM (inactive) |  | > 100 | > 100 µM (inactive) | > 100 µM (inactive) | > 100 µM (inactive) | > 100 µM (inactive) | > 100 µM (inactive) | > 100 µM (inactive) | 76.7 µM (inactive) | > 100 µM (inactive) | > 100 µM (inactive) | > 100 µM (inactive) | > 100 µM (inactive) | > 100 µM (inactive) | > 100 µM (inactive) | > 100 µM (inactive) | > 100 µM (inactive) | > 100 µM (inactive) | > 100 µM (inactive) |
| Cc1ccc(S(=O)(=O)[N-]C2C(=O)c3ccccc3C(=O)C2[n+]2cccc(C(N)=O)c2)cc1 (centres undefined) | 30.8 µM (inactive) |  | > 100 | > 100 µM (inactive) | > 100 µM (inactive) | > 100 µM (inactive) | 32.6 µM (inactive) | > 100 µM (inactive) | 34.8 µM (inactive) | > 100 µM (inactive) | > 100 µM (inactive) | > 100 µM (inactive) | > 100 µM (inactive) | > 100 µM (inactive) | > 100 µM (inactive) | > 100 µM (inactive) | > 100 µM (inactive) | > 100 µM (inactive) | > 100 µM (inactive) | 26.9 µM (inactive) |
| CCn1c(-c2cc(OC)cc(OC)c2)nc2c1C(=O)c1ccccc1C2=O | 45.4 µM (inactive) |  | > 100 | 36.5 µM (inactive) | > 100 µM (inactive) | > 100 µM (inactive) | > 100 µM (inactive) | > 100 µM (inactive) | > 100 µM (inactive) | > 100 µM (inactive) | > 100 µM (inactive) | > 100 µM (inactive) | > 100 µM (inactive) | > 100 µM (inactive) | > 100 µM (inactive) | > 100 µM (inactive) |  | > 100 µM (inactive) | > 100 µM (inactive) | > 100 µM (inactive) |
| C=C1C(=O)OC2CC3(C)CCCC(C)C3=CC12 (centres undefined) | 2.79 µM (inactive) | 3.72 µM (inactive) | 2.1 | 2.91 µM (inactive) | 2.35 µM (inactive) | 1.78 µM (inactive) | 12.1 µM (inactive) | 2.94 µM (inactive) | 3.18 µM (inactive) | 2.56 µM (inactive) | 6.04 µM (inactive) | 3.03 µM (inactive) | 17.6 µM (inactive) | 11.2 µM (inactive) |  | 1.35 µM (inactive) | 10.4 µM (inactive) | 2.16 µM (inactive) | 5.38 µM (inactive) | 4.03 µM (inactive) |
| C=C(C)[C@@H]1CC[C@]2(C(=O)O)CC[C@]3(C)[C@H](CCC4[C@@]5(C)CC[C@H](C(=O)/C=C/c6ccc(O)c(O)c6)C(C)(C)[C@@H]5CC[C@]43C)[C@@H]12 (some centres undefined) | 4.35 µM (inactive) |  | 3.31 | 5.47 µM (inactive) | 3.85 µM (inactive) | 4.04 µM (inactive) | 4.36 µM (inactive) | 2.29 µM (inactive) | 3.89 µM (inactive) | 2.94 µM (inactive) | 2.61 µM (inactive) | 2.81 µM (inactive) | 5.46 µM (inactive) | 12.7 µM (inactive) |  | 2.53 µM (inactive) | 12.6 µM (inactive) |  | 2.81 µM (inactive) | 10.4 µM (inactive) |
| Cc1c(C(=O)C(=O)c2ccccc2)c(C)c(C(=O)C(=O)c2ccccc2)c(C)c1C(=O)C(=O)c1ccccc1 | > 100 µM (inactive) |  | > 100 | > 100 µM (inactive) | > 100 µM (inactive) | > 100 µM (inactive) | > 100 µM (inactive) | > 100 µM (inactive) | > 100 µM (inactive) | > 100 µM (inactive) |  | > 100 µM (inactive) | > 100 µM (inactive) | > 100 µM (inactive) | > 100 µM (inactive) | > 100 µM (inactive) |  | > 100 µM (inactive) | > 100 µM (inactive) | > 100 µM (inactive) |
| COc1ccc(/C=C2\N=C3NC(=O)C(N4CCCCC4)=C(N)N3C2=O)cc1 | > 100 µM (inactive) | > 100 µM (inactive) | > 100 | 47.5 µM (inactive) | 62.4 µM (inactive) | > 100 µM (inactive) | > 100 µM (inactive) | > 100 µM (inactive) | > 100 µM (inactive) | > 100 µM (inactive) | > 100 µM (inactive) |  | > 100 µM (inactive) | > 100 µM (inactive) | > 100 µM (inactive) | > 100 µM (inactive) |  | > 100 µM (inactive) | > 100 µM (inactive) | > 100 µM (inactive) |
| COc1ccc2nc3cc([N+](=O)[O-])ccc3c(Nc3ccc(S(=O)(=O)N=C(N)N)cc3)c2c1 | 20.1 µM (inactive) | > 100 µM (inactive) | 36.2 | 30.9 µM (inactive) | 18.3 µM (inactive) | 9.55 µM (inactive) | 17.2 µM (inactive) | 39.9 µM (inactive) | 39.3 µM (inactive) | 2.72 µM (inactive) | 26.8 µM (inactive) | 9.82 µM (inactive) |  | > 100 µM (inactive) | 10.5 µM (inactive) | 24.1 µM (inactive) | 18.5 µM (inactive) | 36.8 µM (inactive) | 51.2 µM (inactive) | 28.2 µM (inactive) |
| CC1CN=C(N(C(=O)Nc2ccccc2)c2ccccc2)S1 (centres undefined) | 39.5 µM (inactive) | 10.6 µM (inactive) | 37.2 | 42.5 µM (inactive) | 43.9 µM (inactive) | 8.99 µM (inactive) | 27.4 µM (inactive) |  | 24.1 µM (inactive) | 19 µM (inactive) | 35.4 µM (inactive) | 30.1 µM (inactive) | 22 µM (inactive) | 90.4 µM (inactive) | 26 µM (inactive) | > 10 µM (inactive) | 20.8 µM (inactive) | 41.5 µM (inactive) | 17.1 µM (inactive) | 19.5 µM (inactive) |
| Cc1nn(-c2ccccc2)c2nc3ccc(Cl)cc3c(-c3ccccc3)c12 | > 100 µM (inactive) |  | > 100 | > 100 µM (inactive) |  | > 100 µM (inactive) | > 100 µM (inactive) | > 100 µM (inactive) | > 100 µM (inactive) | > 100 µM (inactive) | > 100 µM (inactive) | > 100 µM (inactive) | > 100 µM (inactive) | > 100 µM (inactive) | > 100 µM (inactive) |  | > 100 µM (inactive) | > 100 µM (inactive) |  | > 100 µM (inactive) |
| O=C(Cn1c(-c2ccccc2)cc2ccccc21)N1CCCC1 | > 100 µM (inactive) |  | > 100 | > 100 µM (inactive) |  | > 100 µM (inactive) | > 100 µM (inactive) |  | > 100 µM (inactive) | > 100 µM (inactive) |  | > 100 µM (inactive) | > 100 µM (inactive) | > 100 µM (inactive) |  |  | > 100 µM (inactive) | > 100 µM (inactive) | > 100 µM (inactive) | > 100 µM (inactive) |
| COC(=O)c1cc(C)ccc1C1CN=NC12Cc1c(C)cc(C)cc1C2=O (centres undefined) | 25.7 µM (inactive) |  | 22.5 | 18.7 µM (inactive) | 18.4 µM (inactive) | 20.6 µM (inactive) | 19.7 µM (inactive) | 16.3 µM (inactive) | 14.4 µM (inactive) | 15.7 µM (inactive) | 19.1 µM (inactive) | 18.1 µM (inactive) | 17.7 µM (inactive) | 29.4 µM (inactive) |  | 17.1 µM (inactive) | 16.4 µM (inactive) | 33.2 µM (inactive) | 23.9 µM (inactive) | 16.9 µM (inactive) |
| COc1ccc(C(OCC2OC3(COC(c4ccccc4)(c4ccc(OC)cc4)c4ccc(OC)cc4)C(Oc4nc(=O)ccn43)C2O)(c2ccccc2)c2ccc(OC)cc2)cc1 (centres undefined) | > 100 µM (inactive) |  | > 100 | 10.8 µM (inactive) | > 100 µM (inactive) | > 100 µM (inactive) | > 100 µM (inactive) | > 100 µM (inactive) | > 100 µM (inactive) | > 100 µM (inactive) | > 100 µM (inactive) |  | > 100 µM (inactive) | > 100 µM (inactive) | 71.1 µM (inactive) | > 100 µM (inactive) | > 100 µM (inactive) | > 100 µM (inactive) | > 100 µM (inactive) | > 100 µM (inactive) |
| CCOC(=O)C(C(=S)SC)c1nn2c(=O)cc(C)nc2s1 (centres undefined) | 20.3 µM (inactive) |  | 20.3 | 22.1 µM (inactive) | 18.2 µM (inactive) | 17.1 µM (inactive) | 19.5 µM (inactive) | 18.2 µM (inactive) | 15.8 µM (inactive) | 19.2 µM (inactive) | 20.6 µM (inactive) | 18.8 µM (inactive) | 24.3 µM (inactive) | 20.8 µM (inactive) | 19.6 µM (inactive) | 18.3 µM (inactive) | 20.8 µM (inactive) | 20.3 µM (inactive) | 21 µM (inactive) | 23.7 µM (inactive) |

Reference: ChEMBL document CHEMBL1201862, “PubChem BioAssay data set” (2004)
